Measured values published in patent US11459315B2, “Modulators of methyl modifying enzymes, compositions and uses thereof” (Constellation Pharmaceuticals, Inc., priority 2017, dated 2022).

Each compound was assayed on H3K27me3 mark in HeLa cells (EZH2) (assay: H3K27me3 Alpha Hela Assay (AlphaLISA)). Conditions: HeLa cell assay; Table 3 classes; read-out: EC50 Cellular Activity.
Assay type: cell-based
Procedure, shortened: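 HeLa cells (1,000/well) treated with ten 3-fold compound doses for 72 h at 37 °C; lysates extracted and H3K27me3 detected by AlphaLISA with anti-K27me3 acceptor beads, biotinylated anti-H3 (3 nM) and streptavidin donor beads. EC50 from DMSO-normalized dose-response curves; duplicate plate assessed viability.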

Row | SMILES | EC50 [nM]
1 | Cc1cc(Cl)c(CNC(=O)c2c(C)n([C@H](C)C3CCC(NC4(C)COC4)CC3)c3ccccc23)c(=O)[nH]1 (single isomer, unassigned) [drawing 201] | 25 to 125
2 | Cc1cc(Cl)c(CNC(=O)c2c(C)n([C@H](C)C3CCC(NC4(C)COC4)CC3)c3ccccc23)c(=O)[nH]1 (single isomer, unassigned) [drawing 202] | 5 to 25
3 | Cc1cc(C)c(CNC(=O)c2c(C)n([C@H](C)C3CCC(NC4(C)COC4)CC3)c3ccccc23)c(=O)[nH]1 (single isomer, unassigned) [drawing 203] | 25 to 125
4 | Cc1cc(C)c(CNC(=O)c2c(C)n([C@H](C)C3CCC(NC4(C)COC4)CC3)c3ccccc23)c(=O)[nH]1 (single isomer, unassigned) [drawing 204] | < 5
5 | CSc1cc(C)[nH]c(=O)c1CNC(=O)c1c(C)n([C@H](C)C2CCC(NC3(C)COC3)CC2)c2ccccc12 (single isomer, unassigned) [drawing 206] | 5 to 25
6 | COc1cc(C)[nH]c(=O)c1CNC(=O)c1c(C)n([C@H](C)C2CCC(NC3COC3)CC2)c2ccccc12 (single isomer, unassigned) [drawing 207] | > 125
7 | COc1cc(C)[nH]c(=O)c1CNC(=O)c1c(C)n([C@H](C)C2CCC(NC3COC3)CC2)c2ccccc12 (single isomer, unassigned) [drawing 208] | 25 to 125
8 | Cc1cc(C)c(CNC(=O)c2c(C)n([C@H](C)C3CCC(NC4COC4)CC3)c3ccccc23)c(=O)[nH]1 (single isomer, unassigned) [drawing 209] | > 125
9 | Cc1cc(C)c(CNC(=O)c2c(C)n([C@H](C)C3CCC(NC4COC4)CC3)c3ccccc23)c(=O)[nH]1 (single isomer, unassigned) [drawing 210] | 25 to 125
10 | Cc1cc(Cl)c(CNC(=O)c2c(C)n([C@H](C)C3CCC(NC4COC4)CC3)c3ccccc23)c(=O)[nH]1 (single isomer, unassigned) [drawing 211] | > 125
11 | Cc1cc(Cl)c(CNC(=O)c2c(C)n([C@H](C)C3CCC(NC4COC4)CC3)c3ccccc23)c(=O)[nH]1 (single isomer, unassigned) [drawing 212] | 25 to 125
12 | CSc1cc(C)[nH]c(=O)c1CNC(=O)c1c(C)n([C@H](C)C2CCC(NC3COC3)CC2)c2ccccc12 (single isomer, unassigned) [drawing 213] | < 5
13 | CSc1cc(C)[nH]c(=O)c1CNC(=O)c1c(C)n([C@H](C)C2CCC(NC3COC3)CC2)c2ccccc12 (single isomer, unassigned) [drawing 214] | 25 to 125
14 | COc1cc(C)[nH]c(=O)c1CNC(=O)c1c(C)n([C@H](C)C2CCC(N3CC(OC)C3)CC2)c2ccccc12 (single isomer, unassigned) [drawing 218] | > 125
15 | COC1CN(C2CCC([C@@H](C)n3c(C)c(C(=O)NCc4c(SC)cc(C)[nH]c4=O)c4ccccc43)CC2)C1 (single isomer, unassigned) [drawing 220] | 5 to 25

These compounds were tested against PRC2 containing wt EZH2 (Homo sapiens (Human), UniProt Q15910) (assay: EZH2 residence time assay (100-fold dilution of pre-formed enzyme-inhibitor complex)). Conditions: not given.
PRC2 containing wt EZH2, sequence (Q15910 whole entry): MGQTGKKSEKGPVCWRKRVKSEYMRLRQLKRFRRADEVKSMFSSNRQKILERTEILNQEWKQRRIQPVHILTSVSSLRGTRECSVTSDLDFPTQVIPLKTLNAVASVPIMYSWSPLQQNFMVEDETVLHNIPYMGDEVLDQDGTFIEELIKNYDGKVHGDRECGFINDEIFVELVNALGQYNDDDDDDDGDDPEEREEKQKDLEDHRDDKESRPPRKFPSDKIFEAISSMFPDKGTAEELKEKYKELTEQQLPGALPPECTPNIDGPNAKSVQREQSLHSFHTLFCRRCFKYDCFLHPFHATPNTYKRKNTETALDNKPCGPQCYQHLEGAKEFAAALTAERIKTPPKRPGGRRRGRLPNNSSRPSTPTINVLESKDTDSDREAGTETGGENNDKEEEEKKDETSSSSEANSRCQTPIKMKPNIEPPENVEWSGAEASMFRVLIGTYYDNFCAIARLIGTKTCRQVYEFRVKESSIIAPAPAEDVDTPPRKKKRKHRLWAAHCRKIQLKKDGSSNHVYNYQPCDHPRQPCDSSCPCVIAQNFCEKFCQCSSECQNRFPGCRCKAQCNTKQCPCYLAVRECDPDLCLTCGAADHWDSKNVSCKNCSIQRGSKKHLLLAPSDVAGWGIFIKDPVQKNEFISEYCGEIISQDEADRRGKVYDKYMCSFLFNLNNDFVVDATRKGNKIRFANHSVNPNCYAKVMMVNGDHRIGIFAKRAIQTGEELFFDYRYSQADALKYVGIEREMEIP
PRC2 containing wt EZH2, sequence (O75530 whole entry partner): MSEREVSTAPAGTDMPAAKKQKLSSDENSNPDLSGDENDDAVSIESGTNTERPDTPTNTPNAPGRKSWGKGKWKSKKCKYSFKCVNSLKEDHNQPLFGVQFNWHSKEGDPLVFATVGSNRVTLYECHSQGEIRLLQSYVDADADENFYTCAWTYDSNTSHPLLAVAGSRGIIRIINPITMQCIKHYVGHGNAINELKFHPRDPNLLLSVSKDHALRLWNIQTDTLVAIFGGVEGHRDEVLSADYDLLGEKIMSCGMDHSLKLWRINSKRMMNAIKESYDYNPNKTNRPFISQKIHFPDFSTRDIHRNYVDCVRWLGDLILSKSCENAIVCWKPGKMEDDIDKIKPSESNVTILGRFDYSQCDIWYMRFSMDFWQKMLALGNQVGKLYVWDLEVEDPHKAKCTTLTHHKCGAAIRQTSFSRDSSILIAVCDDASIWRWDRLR
PRC2 containing wt EZH2, sequence (Q15022 whole entry partner): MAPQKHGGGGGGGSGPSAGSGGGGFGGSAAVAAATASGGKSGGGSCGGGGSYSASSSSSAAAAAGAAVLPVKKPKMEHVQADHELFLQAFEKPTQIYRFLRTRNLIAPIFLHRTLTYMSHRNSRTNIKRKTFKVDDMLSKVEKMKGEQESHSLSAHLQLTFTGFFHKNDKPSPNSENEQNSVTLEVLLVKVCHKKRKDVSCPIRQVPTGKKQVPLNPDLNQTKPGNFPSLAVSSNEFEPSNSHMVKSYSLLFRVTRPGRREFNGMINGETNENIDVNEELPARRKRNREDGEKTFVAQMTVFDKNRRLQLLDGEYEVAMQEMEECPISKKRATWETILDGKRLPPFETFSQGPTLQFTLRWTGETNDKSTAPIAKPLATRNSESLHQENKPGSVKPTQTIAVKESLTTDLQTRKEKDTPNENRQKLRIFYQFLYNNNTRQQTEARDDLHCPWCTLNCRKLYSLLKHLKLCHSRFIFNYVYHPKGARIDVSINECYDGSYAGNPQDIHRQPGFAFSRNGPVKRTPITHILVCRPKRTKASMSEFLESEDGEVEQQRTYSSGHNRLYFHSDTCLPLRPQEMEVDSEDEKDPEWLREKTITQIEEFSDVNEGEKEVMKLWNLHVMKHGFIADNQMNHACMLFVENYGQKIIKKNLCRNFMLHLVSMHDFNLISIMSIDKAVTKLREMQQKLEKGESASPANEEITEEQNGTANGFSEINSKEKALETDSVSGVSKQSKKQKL
PRC2 containing wt EZH2, sequence (Q09028 whole entry partner): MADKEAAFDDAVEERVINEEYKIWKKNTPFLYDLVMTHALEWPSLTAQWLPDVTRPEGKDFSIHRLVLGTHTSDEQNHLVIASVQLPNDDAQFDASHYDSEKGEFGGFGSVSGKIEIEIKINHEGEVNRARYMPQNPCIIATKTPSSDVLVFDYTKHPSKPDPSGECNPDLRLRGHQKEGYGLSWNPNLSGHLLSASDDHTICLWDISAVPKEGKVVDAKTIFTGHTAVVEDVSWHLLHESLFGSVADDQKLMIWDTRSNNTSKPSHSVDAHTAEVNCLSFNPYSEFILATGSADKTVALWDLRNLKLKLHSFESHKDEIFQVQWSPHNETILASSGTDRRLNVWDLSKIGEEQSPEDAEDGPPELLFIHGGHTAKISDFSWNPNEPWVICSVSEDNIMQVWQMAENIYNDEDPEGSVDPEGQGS
PRC2 containing wt EZH2, sequence (Q6ZN18 whole entry partner): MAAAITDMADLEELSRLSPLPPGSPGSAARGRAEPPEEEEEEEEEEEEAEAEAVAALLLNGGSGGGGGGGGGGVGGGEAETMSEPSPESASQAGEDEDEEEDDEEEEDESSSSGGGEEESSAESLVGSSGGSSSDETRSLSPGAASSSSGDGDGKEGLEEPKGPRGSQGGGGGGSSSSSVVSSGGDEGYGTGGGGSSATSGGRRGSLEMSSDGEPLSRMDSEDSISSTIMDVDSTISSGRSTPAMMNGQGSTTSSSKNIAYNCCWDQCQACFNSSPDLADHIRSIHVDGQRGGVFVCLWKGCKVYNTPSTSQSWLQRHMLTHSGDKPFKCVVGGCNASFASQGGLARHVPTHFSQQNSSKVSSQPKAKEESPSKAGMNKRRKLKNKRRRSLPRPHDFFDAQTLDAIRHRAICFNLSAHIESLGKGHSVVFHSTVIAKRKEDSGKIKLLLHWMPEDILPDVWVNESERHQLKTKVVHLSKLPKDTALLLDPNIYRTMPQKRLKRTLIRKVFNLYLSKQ
Assay type: biochemical
Method: EZH2 residence time assay: Compound residence times were assessed by monitoring the recovery of enzyme activity following a 100-fold dilution of pre-formed enzyme-inhibitor complex (dilution reaction), and comparing it to the activity of an undiluted control with the same final concentrations of all reagents (control reaction). Enzyme activity was measured by incorporation of ^3H-SAM into a biotinylated H3 peptide. […] For the control reaction, 0.202 nM PRC2 was pre-incubated with 1 μM activating peptide, 1.01 μM SAM, 1.01 μM ^3H-SAM, and compound at 6.06 times its Ki for 2 h in 138.6 μL of buffer, then the reaction was initiated by the addition of 1.4 μL 500 μM substrate peptide in water. Reactions were quenched at various time points spanning up to 10 hours, by transferring 8 μL aliquots from the reaction vessel to a plate containing 8 μL per well of STOP solution (50 mM Tris pH 8.5, 200 mM EDTA, 2 mM SAH). After the last time point, 12 μL of the quenched solutions were transferred to a streptavidin coated FlashPlate (PerkinElmer) containing 40 μL per well of STOP solution, incubated 1-8 h, washed, and read in a TopCount plate reader (PerkinElmer). A custom script was used to fit control reaction progress data to a straight line and dilution reaction progress data:
Where y is the product formed, t is the reaction time, vi is the initial velocity, vs is the steady state velocity, and kobs is the rate constant for the transition from the initial velocity phase of the curve to the steady state velocity phase of the curve. In fitting the dilution reaction progress data, vs was constrained to the slope of the line fitted to the control reaction progress data. The fitted value of kobs was then transformed into residence time:
Where τ is residence time, Ki is the inhibition constant, [EI] is the calculated equilibrium concentration of enzyme-inhibitor complex, [E] is the calculated equilibrium concentration of free enzyme, and [I] is the calculated equilibrium concentration of free inhibitor.

Row | SMILES | residence time
16 | Cc1cc(Cl)c(CNC(=O)c2c(C)n([C@H](C)C3CCC(NC4(C)COC4)CC3)c3ccccc23)c(=O)[nH]1 (single isomer, unassigned) [drawing 201] | D (a t value of less or equal than 0.5 hours)
17 | Cc1cc(Cl)c(CNC(=O)c2c(C)n([C@H](C)C3CCC(NC4(C)COC4)CC3)c3ccccc23)c(=O)[nH]1 (single isomer, unassigned) [drawing 202] | B (a t value of greater than 5 hours but less or equal than 35 hours)
18 | Cc1cc(C)c(CNC(=O)c2c(C)n([C@H](C)C3CCC(NC4(C)COC4)CC3)c3ccccc23)c(=O)[nH]1 (single isomer, unassigned) [drawing 203] | D (a t value of less or equal than 0.5 hours)
19 | Cc1cc(C)c(CNC(=O)c2c(C)n([C@H](C)C3CCC(NC4(C)COC4)CC3)c3ccccc23)c(=O)[nH]1 (single isomer, unassigned) [drawing 204] | B (a t value of greater than 5 hours but less or equal than 35 hours)
20 | CSc1cc(C)[nH]c(=O)c1CNC(=O)c1c(C)n([C@H](C)C2CCC(NC3(C)COC3)CC2)c2ccccc12 (single isomer, unassigned) [drawing 206] | B (a t value of greater than 5 hours but less or equal than 35 hours)
21 | COc1cc(C)[nH]c(=O)c1CNC(=O)c1c(C)n([C@H](C)C2CCC(NC3COC3)CC2)c2ccccc12 (single isomer, unassigned) [drawing 208] | C (a t value of greater than 0.5 hours but less or equal than 5 hours)
22 | Cc1cc(C)c(CNC(=O)c2c(C)n([C@H](C)C3CCC(NC4COC4)CC3)c3ccccc23)c(=O)[nH]1 (single isomer, unassigned) [drawing 210] | C (a t value of greater than 0.5 hours but less or equal than 5 hours)
23 | Cc1cc(Cl)c(CNC(=O)c2c(C)n([C@H](C)C3CCC(NC4COC4)CC3)c3ccccc23)c(=O)[nH]1 (single isomer, unassigned) [drawing 212] | C (a t value of greater than 0.5 hours but less or equal than 5 hours)
24 | CSc1cc(C)[nH]c(=O)c1CNC(=O)c1c(C)n([C@H](C)C2CCC(NC3COC3)CC2)c2ccccc12 (single isomer, unassigned) [drawing 213] | A (value of greater than 35 hours)
25 | CSc1cc(C)[nH]c(=O)c1CNC(=O)c1c(C)n([C@H](C)C2CCC(NC3COC3)CC2)c2ccccc12 (single isomer, unassigned) [drawing 214] | C (a t value of greater than 0.5 hours but less or equal than 5 hours)
26 | COc1cc(C)[nH]c(=O)c1CNC(=O)c1c(C)n([C@H](C)C2CCC(N3CC(OC)C3)CC2)c2ccccc12 (single isomer, unassigned) [drawing 218] | C (a t value of greater than 0.5 hours but less or equal than 5 hours)
27 | COC1CN(C2CCC([C@@H](C)n3c(C)c(C(=O)NCc4c(SC)cc(C)[nH]c4=O)c4ccccc43)CC2)C1 (single isomer, unassigned) [drawing 220] | C (a t value of greater than 0.5 hours but less or equal than 5 hours)

Same assay, conditions: read-out: Residence Time

Row | SMILES | residence time [min]
28 | COc1cc(C)[nH]c(=O)c1CNC(=O)c1c(C)n([C@H](C)C2CCC(NC3COC3)CC2)c2ccccc12 (single isomer, unassigned) [drawing 207] | < 30
29 | Cc1cc(C)c(CNC(=O)c2c(C)n([C@H](C)C3CCC(NC4COC4)CC3)c3ccccc23)c(=O)[nH]1 (single isomer, unassigned) [drawing 209] | < 30
30 | Cc1cc(Cl)c(CNC(=O)c2c(C)n([C@H](C)C3CCC(NC4COC4)CC3)c3ccccc23)c(=O)[nH]1 (single isomer, unassigned) [drawing 211] | < 30
